{"source": "patent US7906522B2", "about": "“2-aminoquinazoline derivatives” (Kyowa Hakko Kirin Co., Ltd, priority 2005, dated 2011)", "target": "T1, Activated human p38α (Homo sapiens, UniProt Q16539)", "T1 construct": "purchased Upstate Biotechnology Inc. 14-251", "T1 sequence (Q16539 whole entry)": "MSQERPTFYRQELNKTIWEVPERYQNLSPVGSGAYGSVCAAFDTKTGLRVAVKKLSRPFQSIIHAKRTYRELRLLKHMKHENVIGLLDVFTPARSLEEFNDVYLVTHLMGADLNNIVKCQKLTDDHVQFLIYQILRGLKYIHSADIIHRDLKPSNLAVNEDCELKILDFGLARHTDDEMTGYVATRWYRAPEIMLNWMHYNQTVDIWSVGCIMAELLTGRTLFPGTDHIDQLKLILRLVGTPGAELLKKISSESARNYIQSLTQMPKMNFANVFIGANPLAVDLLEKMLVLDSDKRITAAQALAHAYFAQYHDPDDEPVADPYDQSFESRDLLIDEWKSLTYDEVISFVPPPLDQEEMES", "test": "p38MAP kinase inhibition test", "assay_type": "biochemical", "conditions": "at a concentration of 1 μmol/L; substrate myelin basic protein, ATP 20 μmol/L, [γ-32P]ATP; read-out: enzyme inhibitory activity", "outline": "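Phosphorylation of myelin basic protein (20 μg/assay) by the kinase measured via [γ-32P]ATP incorporation at 20 μmol/L ATP, pH 7.2 MOPS buffer, 30° C. for 15 min. Labelled substrate bound to P81 paper, washed, and quantified by scintillation counting; compounds added in DMSO.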", "data": [{"compound": "COc1cc2nc(NC3CCN(S(C)(=O)=O)C3)ncc2cc1-c1ccccc1Cl", "note": "(stereo not drawn) [Compound 145, 6-(2-Chlorophenyl)-7-methoxy-2-[1-(methylsulfonyl)pyrrolidin-3-ylamino]quinazoline]", "values": [{"measurement": "inhibition at 1 µM", "value": "≥ 50", "unit": "%"}]}, {"compound": "COc1cc2nc(N[C@H]3CC[C@H](NS(C)(=O)=O)CC3)ncc2cc1-c1ccccc1Cl", "note": "[Compound 146, 6-(2-Chlorophenyl)-7-methoxy-2-[trans-4-(methylsulfonylamino)cyclohexylamino]quinazoline]", "values": [{"measurement": "inhibition at 1 µM", "value": "≥ 50", "unit": "%"}]}, {"compound": "CCS(=O)(=O)N[C@H]1CC[C@H](Nc2ncc3cc(-c4ccccc4Cl)c(OC)cc3n2)CC1", "note": "[Compound 147, 6-(2-Chlorophenyl)-2-[trans-4-(ethylsulfonylamino)cyclohexylamino]-7-methoxyquinazoline]", "values": [{"measurement": "inhibition at 1 µM", "value": "≥ 50", "unit": "%"}]}, {"compound": "CCCS(=O)(=O)N1CCC(Nc2ncc3cc(-c4ccccc4Cl)c(OC)cc3n2)CC1", "note": "[Compound 148, 6-(2-Chlorophenyl)-7-methoxy-2-[1-(1-propylsulfonyl)piperidin-4-ylamino]quinazoline]", "values": [{"measurement": "inhibition at 1 µM", "value": "≥ 50", "unit": "%"}]}, {"compound": "CCOC(=O)N1CCC(Nc2ncc3cc(-c4ccccc4Cl)c(OC)cc3n2)CC1", "note": "[Compound 149, 6-(2-Chlorophenyl)-2-[1-(ethoxycarbonyl)piperidin-4-ylamino]-7-methoxyquinazoline]", "values": [{"measurement": "inhibition at 1 µM", "value": "≥ 50", "unit": "%"}]}, {"compound": "COc1cc2nc(NCC(C)C)ncc2cc1-c1ccccc1Cl", "note": "[Compound 151, 6-(2-Chlorophenyl)-2-isobutylamino-7-methoxyquinazoline]", "values": [{"measurement": "inhibition at 1 µM", "value": "≥ 50", "unit": "%"}]}, {"compound": "COc1cc2nc(NC3CCNCC3)ncc2cc1-c1ccccc1Cl", "note": "[Compound 152, 6-(2-Chlorophenyl)-7-methoxy-2-(piperidin-4-ylamino)quinazoline]", "values": [{"measurement": "inhibition at 1 µM", "value": "≥ 50", "unit": "%"}]}, {"compound": "CC[C@H](C)Nc1ncc2cc(-c3ccccc3Cl)c(OC)cc2n1", "note": "[Compound 155, (S)-2-(sec-Butylamino)-6-(2-chlorophenyl)-7-methoxyquinazoline]", "values": [{"measurement": "inhibition at 1 µM", "value": "≥ 50", "unit": "%"}]}, {"compound": "NC(=O)N1CCC(Nc2ncc3cc(-c4ccccc4Cl)c(O)cc3n2)CC1", "note": "[Compound 157, 2-(1-Carbamoylpiperidin-4-ylamino)-6-(2-chlorophenyl)-7-hydroxyquinazoline]", "values": [{"measurement": "inhibition at 1 µM", "value": "≥ 50", "unit": "%"}]}, {"compound": "N[C@H]1CC[C@H](Nc2ncc3cc(-c4ccccc4Cl)c(O)cc3n2)CC1", "note": "[Compound 158, 2-(trans-4-Aminocyclohexylamino)-6-(2-chlorophenyl)-7-hydroxyquinazoline]", "values": [{"measurement": "inhibition at 1 µM", "value": "≥ 50", "unit": "%"}]}, {"compound": "CC(C)CNc1ncc2cc(-c3ccccc3Cl)c(O)cc2n1", "note": "[Compound 160, 6-(2-Chlorophenyl)-7-hydroxy-2-isobutylaminoquinazoline]", "values": [{"measurement": "inhibition at 1 µM", "value": "≥ 50", "unit": "%"}]}, {"compound": "CCCS(=O)(=O)N1CCC(Nc2ncc3cc(-c4ccccc4Cl)c(O)cc3n2)CC1", "note": "[Compound 162, 6-(2-Chlorophenyl)-7-hydroxy-2-[1-(1-propylsulfonyl)piperidin-4-ylamino]quinazoline]", "values": [{"measurement": "inhibition at 1 µM", "value": "≥ 50", "unit": "%"}]}, {"compound": "COc1cc2nc(NC3CCN(S(C)(=O)=O)CC3)ncc2cc1-c1ccccc1C", "note": "[Compound 164, 7-Methoxy-6-(2-methylphenyl)-2-[1-(methylsulfonyl)piperidin-4-ylamino]quinazoline]", "values": [{"measurement": "inhibition at 1 µM", "value": "≥ 50", "unit": "%"}]}, {"compound": "COc1cc2nc(N[C@@H](C)CO)ncc2cc1-c1ccccc1C", "note": "[Compound 165, (S)-2-(1-Hydroxy-2-propylamino)-7-methoxy-6-(2-methylphenyl)quinazoline]", "values": [{"measurement": "inhibition at 1 µM", "value": "≥ 50", "unit": "%"}]}, {"compound": "CC[C@@H](C)Nc1ncc2cc(-c3ccccc3C)c(OC)cc2n1", "note": "[Compound 166, (R)-2-(sec-Butylamino)-7-methoxy-6-(2-methylphenyl)quinazoline]", "values": [{"measurement": "inhibition at 1 µM", "value": "≥ 50", "unit": "%"}]}, {"compound": "COc1cc2nc(NC(C)(C)C)ncc2cc1-c1ccccc1C", "note": "[Compound 167, 2-(tert-Butylamino)-7-methoxy-6-(2-methylphenyl)quinazoline]", "values": [{"measurement": "inhibition at 1 µM", "value": "≥ 50", "unit": "%"}]}, {"compound": "COc1cc2nc(N[C@@H](C)C(C)C)ncc2cc1-c1ccccc1C", "note": "[Compound 168, (S)-2-(3-methyl-2-butylamino)-7-methoxy-6-(2-methylphenyl)quinazoline]", "values": [{"measurement": "inhibition at 1 µM", "value": "≥ 50", "unit": "%"}]}, {"compound": "Cc1ccccc1-c1cc2cnc(N[C@@H](C)C3CCCCC3)nc2cc1O", "note": "[Compound 172, (S)-2-(1-cyclohexylethylamino)-7-hydroxy-6-(2-methylphenyl)quinazoline]", "values": [{"measurement": "inhibition at 1 µM", "value": "≥ 50", "unit": "%"}]}, {"compound": "Cc1ccccc1-c1cc2cnc(N[C@@H](C)C(C)C)nc2cc1O", "note": "[Compound 173, (S)-2-(3-methyl-2-butylamino)-7-hydroxy-6-(2-methylphenyl)quinazoline]", "values": [{"measurement": "inhibition at 1 µM", "value": "≥ 50", "unit": "%"}]}, {"compound": "CCCC(CCC)Nc1ncc2cc(-c3ccccc3C)c(O)cc2n1", "note": "[Compound 174, 7-Hydroxy-6-(2-methylphenyl)-2-(4-heptylamino)quinazoline]", "values": [{"measurement": "inhibition at 1 µM", "value": "≥ 50", "unit": "%"}]}, {"compound": "Cc1ccccc1-c1cc2cnc(Nc3c(C)cccc3C(C)C)nc2cc1O", "note": "[Compound 177, 7-Hydroxy-2-(2-isopropyl-6-methylanilino)-6-(2-methylphenyl)quinazoline]", "values": [{"measurement": "inhibition at 1 µM", "value": "≥ 50", "unit": "%"}]}, {"compound": "Cc1ccccc1-c1cc2cnc(Nc3c(Cl)cc([N+](=O)[O-])cc3Cl)nc2cc1O", "note": "[Compound 179, 2-(2,6-Dichloro-4-nitroanilino)-7-hydroxy-6-(2-methylphenyl)quinazoline]", "values": [{"measurement": "inhibition at 1 µM", "value": "≥ 50", "unit": "%"}]}, {"compound": "COc1cc2nc(NC(C)C)ncc2cc1-c1ccccc1CO", "note": "[Compound 182, 6-[2-(Hydroxymethyl)phenyl]-2-isopropylamino-7-methoxyquinazoline]", "values": [{"measurement": "inhibition at 1 µM", "value": "≥ 50", "unit": "%"}]}, {"compound": "COc1cc2nc(NC(C)C)ncc2cc1-c1ccccc1C#N", "note": "[Compound 183, 6-(2-Cyanophenyl)-2-isopropylamino-7-methoxyquinazoline]", "values": [{"measurement": "inhibition at 1 µM", "value": "≥ 50", "unit": "%"}]}, {"compound": "COc1cc2nc(NC(C)C)ncc2cc1-c1ccccc1C(=O)O", "note": "[Compound 185, 6-(2-Carboxyphenyl)-2-isopropylamino-7-methoxyquinazoline]", "values": [{"measurement": "inhibition at 1 µM", "value": "≥ 50", "unit": "%"}]}, {"compound": "COc1cc2nc(NC(C)C)ncc2cc1-c1ccccc1O", "note": "[Compound 186, 6-(2-Hydroxyphenyl)-2-isopropylamino-7-methoxyquinazoline]", "values": [{"measurement": "inhibition at 1 µM", "value": "≥ 50", "unit": "%"}]}, {"compound": "COc1cc2nc(NC(C)C)ncc2cc1-c1ccccc1C(C)=O", "note": "[Compound 187, 6-(2-Acetylphenyl)-2-isopropylamino-7-methoxyquinazoline]", "values": [{"measurement": "inhibition at 1 µM", "value": "≥ 50", "unit": "%"}]}, {"compound": "COc1cc2nc(NC(C)C)ncc2cc1-c1ccccc1C(=O)N1CCOCC1", "note": "[Compound 188, 2-Isopropylamino-7-methoxy-6-[2-(morpholinocarbonyl)phenyl]quinazoline]", "values": [{"measurement": "inhibition at 1 µM", "value": "≥ 50", "unit": "%"}]}, {"compound": "COc1cc2nc(NC(C)C)ncc2cc1-c1ccccc1F", "note": "[Compound 190, 6-(2-Fluorophenyl)-2-isopropylamino-7-methoxyquinazoline]", "values": [{"measurement": "inhibition at 1 µM", "value": "≥ 50", "unit": "%"}]}, {"compound": "COc1cc2nc(NC(C)C)ncc2cc1-c1ccccc1C", "note": "[Compound 191, 2-Isopropylamino-7-methoxy-6-(2-methylphenyl)quinazoline]", "values": [{"measurement": "inhibition at 1 µM", "value": "≥ 50", "unit": "%"}]}, {"compound": "COc1cc2nc(NC(C)C)ncc2cc1-c1ccccc1C(F)(F)F", "note": "[Compound 192, 2-Isopropylamino-7-methoxy-6-(2-trifluoromethylphenyl)quinazoline]", "values": [{"measurement": "inhibition at 1 µM", "value": "≥ 50", "unit": "%"}]}, {"compound": "COc1ccccc1-c1cc2cnc(NC(C)C)nc2cc1OC", "note": "[Compound 193, 2-Isopropylamino-7-methoxy-6-(2-methoxyphenyl)quinazoline]", "values": [{"measurement": "inhibition at 1 µM", "value": "≥ 50", "unit": "%"}]}, {"compound": "COc1cc2nc(NC(C)C)ncc2cc1-c1cccc(OCc2ccccc2)c1", "note": "[Compound 195, 6-[3-(Benzyloxy)phenyl]-2-isopropylamino-7-methoxyquinazoline]", "values": [{"measurement": "inhibition at 1 µM", "value": "≥ 50", "unit": "%"}]}]}
